Source: patent publication US7919577B2, “Adrenocorticotropic hormone analogs and related methods” (Colorado Seminary, priority 2004, dated 2011)
No end group written: not given here.

Assays:
[1] = system: explanted mouse adrenal membrane (adrenal halves); assay: in vitro Serum-free Adrenal Inhibition Assay (Example 4); format: cell-based; details: FIG. 4
Experimental: A series of separate in vitro Serum-Free Adrenal Corticosteroid Inhibition Assay were performed to identify ACTH analogs that inhibit ACTH-induced adrenal hormone production in vitro. The concentration of corticosterone was measured according to the procedure of Example 4 in a serum-free culture medium containing explanted adrenal membrane and unmodified ACTH, AT814 ACTH analog (SEQ ID NO:20), or a combination of ACTH and AT814 at 100 ng/mL each. […] Corticosterone levels were taken at 2.0 hours after the adrenal membrane was placed in the serum free M199 medium, and each corticosterone level in Table 5 is an average of five samples.
The in vitro Serum-free Adrenal Inhibition Assay was performed according the following method. First, adrenals were removed from mice, dissected free of fat, and cut in half. See Costa, J L, et al., “Mutational analysis of evolutionarily conserved ACTH residues,” Gen Comp Endocrinol. 136:12-16 (2004); and Weber, M M, et al., “Postnatal overexpression of insulin-like growth factor II in transgenic mice is associated with adrenocortical hyperplasia and enhanced steroidogenesis,” Endocrinology 140:1537-1543 (1999), incorporated herein by reference.
Second, each adrenal half was placed into an individual well of a 4-well dish, one dish per mouse. Adrenal halves were incubated at 5% CO2, 37° C., in 0.5 ml serum-free medium (M199; Invitrogen) for 30 minutes to equilibrate.
Third, medium was removed and replaced by 0.5 ml M199 containing ACTH, AT814, or both, at 100 ng/ml each; controls had no peptides added.
Fourth, after 2 hours of incubation, the medium was removed, pooled for all four halves from each mouse, and assayed by corticosterone using standard RIA methods. corticosterone was determined by competitive radioimmunoassay (^125I RIA kit; ICN, Costa Mesa, Calif.) according to the manufacturer's recommendations. One microliter of serum was used per assay sample. Samples were run in duplicates.

[2] = system: dexamethasone-suppressed male FVB/N mice; assay: in vivo Serum Corticosteroid Induction Assay (Example 1); parameters: species or system mouse; details: relative to unmodified mACTH(1-24); 1 μg subcutaneously to dexamethasone-suppressed mice; blood one hour later
Experimental: An in vivo Serum Corticosteroid Induction Assay measures the level of corticosteroid or corticosterone in the blood stream of a subject. More specifically, the in vivo Serum Corticosteroid Induction Assay can include the following steps: first, an agent to suppress endogenous ACTH production was administered to a mouse subject, such as an intraperitoneal injection of dexamethasone; second, after waiting a suitable period of time for suppression of endogenous ACTH production (e.g., 1.5-2.0 hours), a test compound can be administered to the mouse by a suitable method, such as intraperitoneal or subcutaneous injection; and third, after waiting a suitable period of time (e.g., 1 hour) for action of the injected test compound, a blood sample can be taken from the subject and the level of serum corticosterone can be determined by a suitable method, such as a competitive radioimmunoassay using ^125I RIA kit (ICN, Costa Mesa, Calif.). Example 1 describes a murine in vivo Serum Corticosteroid Induction Assay in detail.
The corticosteroid or corticosterone secretion induced in vivo by an ACTH analog compound was compared to the level of corticosteroid secretion produced by an unmodified ACTH compound by measuring blood serum corticosteroid after administering either the ACTH or ACTH analog as test compounds. […] ACTH analog compositions with decreased function were identified by measuring corticosterone levels using standard radioimmunoassay (RIA) analysis on blood samples collected one hour after administering the mACTH(1-24) or ACTH analog compound to dexamethasone-suppressed mice. In FIG. 1, the potency of various ACTH analog peptides is expressed as percent induction of corticosterone, with mouse ACTH being 100%. […] The percent of corticosterone induction 12 of ACTH analog Compounds in Samples 2-10 are shown as a percentage of the concentration of serum corticosterone 20 measured for unmodified mACTH(1-24) in the in vivo Serum Corticosteroid Adrenal Induction Assay. The structural modifications and measured percentage reduction in serum measured for Samples 2-10 in FIG. 1 are shown in Table 3 below.
The in vivo Serum Corticosteroid Induction Assay was performed according the following method. First, two to three month-old male FVB/N mice from our colony, five per group, were injected intraperitoneally with dexamethasone (0.4 mg/0.1 ml PBS per mouse; Sigma, St. Louis, Mo.) to suppress their endogenous ACTH production. See Hajos, G T et al., “Studies of the potency of polypeptides with ACTH action by a new method based on continuous measurement of plasma corticosterone,” Steroids Lipids Res 3:225-228 (1972), Costa, J L, et al., “Mutational analysis of evolutionarily conserved ACTH residues,” Gen Comp Endocrinol, 136:12-16 (2004), and Karpac, J, et al., “Development, Maintenance, and Function of the Adrenal Gland in Early Postnatal Pro-opiomelanocortin Null Mutant Mice,” Endocrinology (2005), published online ahead of print Feb. 24, 2005, all of which are incorporated herein by reference.
Second, ninety to one hundred twenty minutes later, the dexamethasone-suppressed mice were injected subcutaneously between the shoulder blades with either unmodified mACTH(1-24) or one of several ACTH analog peptide compounds (1 μg/0.1 mL PBS/0.5% BSA), or with vehicle alone (control) (0.1 mL PBS/0.5% BSA). The following ACTH analog peptide compounds were administered to separate mice: 1: murine ACTH1-24; 2: V26F,E30K; 3: P19W,K21E,Y23R; 4: E30K,P36R; 5: ALA19-24; 6: V26F,P36R; 7: P19W, K21E; 8: P19W,K21A,delY23; 9: P19W,K21A; 10: KRRP16-19RAAW (AT814) (SEQ ID NO:20).
Third, one hour later, blood was collected within less than 1 minute from a small incision in the tail, and serum was flash-frozen and stored at −80° C. until assayed. Serum corticosterone was determined by competitive radioimmunoassay (^125I RIA kit; ICN, Costa Mesa, Calif.) according to the manufacturer's recommendations. One microliter of serum was used per assay sample. […]

“N-Ser^1-Tyr-Ser-Met-Glu^5-His-Phe-Arg-Trp-Gly^10-Lys-Pro-Val-Gly-Lys^15-Arg-Ala-Ala-Trp-Val^20-Lys-Val-Tyr-Pro-Ac (SYSMEHFRWGKPVGKRAAWVKVYP; not fully specified; printed as N-Ser1-Tyr-Ser-Met-Glu5-His-Phe-Arg-Trp-Gly10-Lys-Pro-Val-Gly-Lys15-Arg-Ala-Ala-Trp-Val20-Lys-Val-Tyr-Pro-Ac) [AT814]” was tested, and the “corticosterone induction by analog alone” value ([1]; AT814 alone in M199 serum-free medium) was “only a negligible amount of corticosterone induction”, the “reduction of corticosterone induction compared to unmodified ACTH alone” value ([1]; equal amounts of AT814 and unmodified ACTH) was “about 65%” and the “Percent reduction in serum corticosteroid” value [2] was 100%.
